“And” between values parts separate entries of the source, which are not always exact repeats. Identical values can stand only once. Toxic doses and inconclusive results are not listed. The calls were made as follows: active = survival T/C of 150% or more; inactive = T/C below 125% in these data.
System: CD2F1 mice, intracerebral L1210 leukemia, survival T/C
Assay: NCI In Vivo Anticancer Drug Screen. Data for tumor model L1210 Leukemia (intracerebral) in CD2F1 (CDF1) mice
Conditions: endpoint: median survival time, schedule: Q01DX005 (ip), higher = longer survival
Method: The antitumor activity of compounds was measured in mice bearing transplantable tumors. Survival or tumor size were measured and the results are expressed as the measurement made in the treated group (T) divided by the measurement made in the vehicle treated control group (C). The tumor model used in this assay is L1210 Leukemia (intracerebral) in CD2F1 (CDF1) mice

Measured: T/C

CN(C)c1nc(N(C)C)nc(N(C)C)n1
inactive: dose: 100.0 mg/kg/injection, vehicle: saline with Tween-80 121 % of control | dose: 100.0 mg/kg/injection, vehicle: suspension in saline 102 % of control | dose: 200.0 mg/kg/injection, vehicle: saline with Tween-80 101 % of control | dose: 200.0 mg/kg/injection, vehicle: suspension in saline 101 % of control | dose: 400.0 mg/kg/injection, vehicle: suspension in saline 100 % of control | dose: 800.0 mg/kg/injection, vehicle: suspension in saline 118 % of control

O=C1C(=O)c2ccccc2C(O)=C1CC=C(Cl)Cl
inactive: dose: 10.0 mg/kg/injection, vehicle: Klucel (hydroxypropylcellulose) (HPC) 89 % of control and 96 % of control | dose: 20.0 mg/kg/injection, vehicle: Klucel (hydroxypropylcellulose) (HPC) 95 % of control and 96 % of control | dose: 40.0 mg/kg/injection, vehicle: Klucel (hydroxypropylcellulose) (HPC) 101 % of control and 109 % of control | dose: 80.0 mg/kg/injection, vehicle: Klucel (hydroxypropylcellulose) (HPC) 109 % of control and 117 % of control

CCCN(C)/N=N/c1nc[nH]c1C(N)=O
inactive: dose: 4.0 mg/kg/injection, vehicle: suspension in saline 105 % of control | dose: 8.0 mg/kg/injection, vehicle: suspension in saline 109 % of control | dose: 16.0 mg/kg/injection, vehicle: suspension in saline 112 % of control | dose: 32.0 mg/kg/injection, vehicle: suspension in saline 118 % of control | dose: 64.0 mg/kg/injection, vehicle: suspension in saline 124 % of control

— PubChem BioAssay AID260 (DTP/NCI, 2004)
